From patent publication US8865750B2, “Small molecule inhibitors of RGS proteins” (The Regents of The University of Michigan, priority 2011, dated 2014) come the findings set out here.

The structures appear in SMILES notation. Where two headings read alike, the source gives them in different places.

Test [1] deals with RGS4. Description: FCPIA: Gαo binding to RGS4. Conditions: for RGS4 Hill Slope: Table 3; for IC50: read-out: RGS4 IC50; for activity at RGS4: FCPIA. The text has this:
(§1) FCPIA Dose Response and Reversibility Experiments:

For test [2], the target named is RGS8 (Homo sapiens (Human), UniProt P57771). Description: FCPIA: Gαo binding to RGS8. Conditions: for RGS8 Hill Slope: Table 3; for IC50: read-out: RGS8 IC50.
Description: as §1

Test [3] relates to HEK293 cells. Description: Calcium mobilization induced by compound alone.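 Note: percent of response to 10 µM reference CCG-50014.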 In kind it is cell-based. Conditions: Homo sapiens, HEK293; read-out: Calcium transient (% 50014). The protocol:
Calcium Mobilization Experiments:
A stable cell line was developed based upon the HEK-293 Flp-In TREx cell line (Invitrogen, Carlsbad, Calif.) that stably express the muscarinic M3 receptor and have human RGS4 expression under doxycycline control. Cells were maintained in DMEM supplemented with 10% fetal bovine serum and Penicillin (100 units/ml)-Streptomycin (100 μg/ml) under 5% CO2 at 37° C. For experiments, cells were split into 96-well black, clear bottom, poly-D-lysine coated microtiter plates (Nunc, Cat. #152037) at a density of 20,000 cells/well in DMEM containing 10% fetal bovine serum and Penicillin (100 units/ml), Streptomycin (100 μg/ml). RGS4 expression was induced by supplementing the medium with 1 μg/mL doxycycline for 24-48 hours before experimentation. Cells were loaded with Fluo-4 No Wash dye in buffer for 30 minutes at 37° C. Compounds and/or carbachol were added to the wells and the fluorescence intensity was measured using a FlexStation (Molecular Devices, Sunnyvale, Calif.) plate reader. Data analysis was performed by calculating the area under the curve or maximal fluorescence intensity from a 120 second kinetic measurement.

Setting [4] is: Table 3, duplex FCPIA, average of two experiments.
The mark [5] stands for this setting: Table 2, mean of two independent FCPIA experiments.

Chain of RGS8 (P57771 other isoform, or with tags, fused parts or gaps): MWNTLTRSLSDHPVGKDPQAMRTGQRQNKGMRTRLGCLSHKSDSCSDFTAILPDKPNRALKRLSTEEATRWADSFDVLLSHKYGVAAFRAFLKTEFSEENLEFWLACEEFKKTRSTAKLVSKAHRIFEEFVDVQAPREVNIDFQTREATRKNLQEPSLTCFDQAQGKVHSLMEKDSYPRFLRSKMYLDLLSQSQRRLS

Broadly, the IC50 is the concentration that inhibits the measured activity by half. As for `O=c1sn(-c2ccccc2)c(=O)n1Cc1ccccc1` [CCG-203722, 2-phenyl-4-benzyl-1,2,4-thiadiazoline-3,5-dione], the “RGS4 Hill Slope” value in test [1] was −1.89. The 50% inhibitory concentration (IC50) was determined as 0.024 µM in test [1] (setting [4]) and 5.6 µM in test [2] (Table 6, FCPIA). In addition, the “RGS8 Hill Slope” value in test [2] was −0.80. In addition, the Emax at 10 µM in test [3] is 3.8%.
`O=c1sn(-c2ccc(Cl)cc2)c(=O)n1Cc1ccccc1` [CCG-203723, 2-(4-chlorophenyl)-4-benzyl-1,2,4-thiazolidine-3,5-dione]: the “RGS4 Hill Slope” value in test [1] is given as −1.99. Also, the IC50 in test [1] (setting [4]) was determined as 0.029 µM; in test [2] (setting [4]), 5.2 µM. Moreover, the “RGS8 Hill Slope” value in test [2] is reported as −0.80. Further, the Emax at 10 µM in test [3] worked out at 120%.
With `O=c1sn(-c2ccc(Cl)c(Cl)c2)c(=O)n1Cc1ccccc1` [CCG-203725], the “RGS4 Hill Slope” value in test [1] is recorded as −2.06. Besides, the IC50 stood at 0.089 µM in test [1] (setting [4]) and 13.2 µM in test [2] (Table 6, FCPIA). Further, in test [2], the “RGS8 Hill Slope” value is reported as −1.62. Moreover, the Emax at 10 µM in test [3] is 64.2%.
In the same order, the values of `O=c1sn(-c2ccccc2)c(=O)n1Cc1ccc(F)cc1` [CCG-203726, 2-phenyl-4-(4-fluorobenzyl)-1,2,4-thiadiazolidine-3,5-dione] are −1.42, 0.016 µM, 6.2 µM, −0.82 and 20.9%.
Take `O=c1sn(-c2ccc(Cl)c(Cl)c2)c(=O)n1Cc1ccc(F)cc1` [CCG-203728, 2-(3,4-dichlorophenyl)-4-(4-fluorobenzyl)-1,2,4-thiadiazolidine-3,5-dione]: the “RGS4 Hill Slope” value in test [1] is given as −1.15. Besides, the IC50 amounted to 0.036 µM in test [1] (setting [4]) and 17.2 µM in test [2] (setting [4]). The “RGS8 Hill Slope” value in test [2] is on record as −1.78. Moreover, in test [3], the Emax at 10 µM worked out at 128%.
As to `Cc1ccc(-n2sc(=O)n(Cc3ccc(Cl)cc3)c2=O)cc1` [CCG-203731, 2-p-tolyl-4-(4-chlorobenzyl)-1,2,4-thiadiazolidine-3,5-dione], the “RGS4 Hill Slope” value in test [1] is −0.70. Besides, the IC50 in test [1] (Table 6, FCPIA) was 0.0054 µM; in test [2] (Table 6, FCPIA) it was 11.8 µM. The “RGS8 Hill Slope” value in test [2] was −1.50. For the same compound, in test [3], the Emax at 10 µM is -2.6%.
Turning to `Cc1ccc(Cn2sc(=O)n(Cc3ccccc3)c2=O)cc1` [CCG-203734, 2-(4-methylbenzyl)-4-benzyl-1,2,4-thiadiazolidine-3,5-dione], in test [1], the “RGS4 Hill Slope” value was −0.84. Also, the IC50 in test [1] (Table 6, FCPIA) came out at 0.0072 µM; in test [2] (setting [4]), 20.4 µM. Besides, the “RGS8 Hill Slope” value in test [2] is −0.66. The Emax at 10 µM in test [3] came to 591%.
As to `COc1ccc(-n2sc(=O)n(Cc3ccc(F)cc3)c2=O)cc1` [CCG-203735, 2-(4-methoxyphenyl)-4-(4-fluorobenzyl)-1,2,4-thiadiazolidine-3,5-dione], the “RGS4 Hill Slope” value in test [1] was −1.33. Besides, the IC50 worked out at 0.011 µM in test [1] (setting [4]) and 11.4 µM in test [2] (Table 6, FCPIA). Moreover, the “RGS8 Hill Slope” value in test [2] was −1.27. Moreover, the Emax at 10 µM in test [3] came out at 6.2%.
Turning to `Cc1ccc(Cn2c(=O)sn(-c3ccc(C)cc3)c2=O)cc1` [CCG-203736, 2-p-tolyl-4-(4-methylbenzyl)-1,2,4-thiadiazolidine-3,5-dione], the “RGS4 Hill Slope” value in test [1] is given as −1.35. For the same compound, the 50% inhibitory concentration (IC50) was found to be 0.0086 µM in test [1] (Table 6, FCPIA) and 11.6 µM in test [2] (setting [4]). Besides, in test [2], the “RGS8 Hill Slope” value is on record as −1.45. In addition, the Emax at 10 µM in test [3] was 4.9%.
Consider `COc1ccc(Cn2c(=O)sn(-c3ccc(C)cc3)c2=O)cc1` [CCG-203754, 2-p-tolyl-4-(4-methoxybenzyl)-1,2,4-thiadiazolidine-3,5-dione], for which, in test [2] (Table 6, FCPIA), the IC50 was 312 µM.
On to `CCn1sc(=O)n(C)c1=O` [CCG-203758, 2-ethyl-4-methyl-1,2,4-thiadiazolidine-3,5-dione], for which the IC50 in test [1] (Table 6, FCPIA) worked out at 0.0223 µM; in test [2] (Table 6, FCPIA) it was 37 µM.
On to `CCn1sc(=O)n(Cc2ccc(F)cc2)c1=O` [CCG-203766, 2-ethyl-4-(4-fluorobenzyl)-1,2,4-thiadiazolidine-3,5-dione], for which the IC50 was 0.0223 µM in test [1] (Table 6, FCPIA) and 18.7 µM in test [2] (Table 6, FCPIA).
As to `Cc1ccc(CN2C(=O)CN(c3ccc(C)cc3)C2=O)cc1` [CCG-203778], the half-maximal inhibitory concentration (IC50) in test [1] (setting [5]) and in test [2] (setting [5]) was greater than 100 µM in each case.
On to `Cc1ccc(C2=CC(=O)N(Cc3ccccc3)C2=O)cc1` [CCG-203779], for which the half-maximal inhibitory concentration (IC50) in test [1] (setting [5]) worked out at 93 µM.
For `Cc1ccc(-n2sc(=O)n(Cc3cccc(C)c3)c2=O)cc1` [CCG-203782, 2-(4-methylphenyl)-4-(3-methylbenzyl)-1,2,4-thiadiazolidine-3,5-dione], the IC50 in test [1] (Table 6, FCPIA) was 0.0145 µM; in test [2] (Table 6, FCPIA), 9.9 µM.
Regarding `CC(C)(C)c1ccc(-n2sc(=O)n(Cc3ccc(F)cc3)c2=O)cc1` [S1, 2-(4-t-butylphenyl)-4-(4-fluorobenzyl)-1,2,4-thiadiazolidine-3,5-dione], in test [2] (Table 6, FCPIA), the half-inhibitory concentration (IC50) was 50.4 µM.
On to `O=c1sn(-c2ccccc2)c(=O)n1Cc1ccc(Cl)cc1` [S4, 2-phenyl-4-(4-chlorobenzyl)-1,2,4-thiadiazolidine-3,5-dione], for which the IC50 in test [2] (Table 6, FCPIA) was determined as 7.5 µM.
Consider `O=c1sn(-c2ccc(Cl)c(Cl)c2)c(=O)n1Cc1ccc(Cl)cc1` [S7, 2-(3,4-dichlorophenyl)-4-(4-chlorobenzyl)-1,2,4-thiadiazolidine-3,5-dione], for which, in test [2] (Table 6, FCPIA), the IC50 stood at 43.2 µM.
On the same count and under the same terms, under `COc1ccc(-n2sc(=O)n(Cc3ccc(C)cc3)c2=O)cc1` [S11, 2-(4-methoxyphenyl)-4-(4-methylbenzyl)-1,2,4-thiadiazolidine-3,5-dione] stands 6.6 µM.
For the compound `CC(C)(C)c1ccc(-n2sc(=O)n(Cc3cccc(Cl)c3)c2=O)cc1` [S15, 2-(4-t-butylphenyl)-4-(3-chlorobenzyl)-1,2,4-thiadiazolidine-3,5-dione], in test [2] (Table 6, FCPIA), the IC50 came to 32.2 µM.
On the same count and under the same terms, next, `O=c1sn(-c2cccc(C(F)(F)F)c2)c(=O)n1Cc1cccc(Cl)c1` [S18, 2-(3-trifluoromethylphenyl)-4-(3-chlorobenzyl)-1,2,4-thiadiazolidine-3,5-dione]: 16.2 µM.
Same read-out and setting: under `Cc1cccc(Cn2c(=O)sn(-c3ccc(C(C)(C)C)cc3)c2=O)c1` [S20, 2-(4-t-butylphenyl)-4-(3-methylbenzyl)-1,2,4-thiadiazolidine-3,5-dione] stands 17.8 µM; under `Cc1cccc(Cn2c(=O)sn(-c3cccc(Cl)c3)c2=O)c1` [S22, 2-(3-chlorophenyl)-4-(3-methylbenzyl)-1,2,4-thiadiazolidine-3,5-dione], 31 µM.
Take `Cc1cccc(Cn2c(=O)sn(-c3cccc(C(F)(F)F)c3)c2=O)c1` [S23, 2-(3-trifluoromethylphenyl)-4-(3-methylbenzyl)-1,2,4-thiadiazolidine-3,5-dione]: the “RGS8 Hill Slope” value in test [2] is −1.03. Further, the concentration for half-maximal inhibition (IC50) was found to be 15.9 µM in test [2] (setting [4]) and 15.9 µM in test [2] (Table 6, FCPIA). In addition, the Emax at 10 µM in test [3] turned out to be 65.2%.
Consider `Cc1ccc(Cn2c(=O)sn(-c3ccc(Cl)c(Cl)c3)c2=O)cc1` [S!2, 2-(3,4-dichlorophenyl)-4-(4-methylbenzyl)-1,2,4-thiadiazolidine-3,5-dione], for which the IC50 in test [2] (Table 6, FCPIA) is 175 µM.
Regarding `Cc1ccc(CN2C(=O)CN(c3ccc(C)cc3)C2=O)cc1` [compound 14, 3-(4-methylbenzyl)-1-p-tolylimidazolidine-2,4-dione], in test [1], the “activity at RGS4” value was “Neither 14 or 15 displayed activity at RGS4”. For the same compound, the concentration for half-maximal inhibition (IC50) was greater than 100 µM in test [1] (Table 6, FCPIA) and greater than 100 µM in test [2] (Table 6, FCPIA).
`Cc1ccc(C2=CC(=O)N(Cc3ccccc3)C2=O)cc1` [compound 15, 1-benzyl-3-p-tolyl-1H-pyrrole-2,5-dione]: the “activity at RGS4” value in test [1] is listed as “Neither 14 or 15 displayed activity at RGS4”.
